The text below walks through data of patent US10065990B2, “Cyclic peptide compound, and preparation method, pharmaceutical composition and use thereof” (HANGZHOU GUANYU BIO-MEDICAL CO., LTD, priority 2013, dated 2018).

One may read the IC50 as the concentration at which inhibition is half-maximal. One may read the GI50 as the concentration that inhibits growth by half.

Like-named read-outs stand apart in the source and are kept apart here.

For one experiment, the target named is HDAC2 (Homo sapiens, UniProt Q92769). As to the kind of experiment: HDAC biochemical activity measurement (fluorescent substrate deacetylation). The settings on record: 37° C. 30 minutes.
HDAC2, sequence (Q92769 whole entry, species assumed): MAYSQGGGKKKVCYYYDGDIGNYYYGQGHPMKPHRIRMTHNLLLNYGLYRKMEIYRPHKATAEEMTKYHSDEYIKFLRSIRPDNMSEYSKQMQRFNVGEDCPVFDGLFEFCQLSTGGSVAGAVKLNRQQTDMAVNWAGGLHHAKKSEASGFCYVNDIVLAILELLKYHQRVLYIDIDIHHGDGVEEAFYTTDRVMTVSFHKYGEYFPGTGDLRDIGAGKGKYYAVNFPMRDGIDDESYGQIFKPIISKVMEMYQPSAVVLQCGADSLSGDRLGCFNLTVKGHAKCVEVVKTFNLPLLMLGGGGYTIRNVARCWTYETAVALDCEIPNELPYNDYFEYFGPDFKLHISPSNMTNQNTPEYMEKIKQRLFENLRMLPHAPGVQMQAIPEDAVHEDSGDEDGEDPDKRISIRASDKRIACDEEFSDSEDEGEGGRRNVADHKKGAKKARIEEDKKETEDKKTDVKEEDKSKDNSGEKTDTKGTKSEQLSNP
In the next experiment the target is T1, HDAC7 (Homo sapiens, UniProt Q8WUI4).
T1 sequence (Q8WUI4 1-952): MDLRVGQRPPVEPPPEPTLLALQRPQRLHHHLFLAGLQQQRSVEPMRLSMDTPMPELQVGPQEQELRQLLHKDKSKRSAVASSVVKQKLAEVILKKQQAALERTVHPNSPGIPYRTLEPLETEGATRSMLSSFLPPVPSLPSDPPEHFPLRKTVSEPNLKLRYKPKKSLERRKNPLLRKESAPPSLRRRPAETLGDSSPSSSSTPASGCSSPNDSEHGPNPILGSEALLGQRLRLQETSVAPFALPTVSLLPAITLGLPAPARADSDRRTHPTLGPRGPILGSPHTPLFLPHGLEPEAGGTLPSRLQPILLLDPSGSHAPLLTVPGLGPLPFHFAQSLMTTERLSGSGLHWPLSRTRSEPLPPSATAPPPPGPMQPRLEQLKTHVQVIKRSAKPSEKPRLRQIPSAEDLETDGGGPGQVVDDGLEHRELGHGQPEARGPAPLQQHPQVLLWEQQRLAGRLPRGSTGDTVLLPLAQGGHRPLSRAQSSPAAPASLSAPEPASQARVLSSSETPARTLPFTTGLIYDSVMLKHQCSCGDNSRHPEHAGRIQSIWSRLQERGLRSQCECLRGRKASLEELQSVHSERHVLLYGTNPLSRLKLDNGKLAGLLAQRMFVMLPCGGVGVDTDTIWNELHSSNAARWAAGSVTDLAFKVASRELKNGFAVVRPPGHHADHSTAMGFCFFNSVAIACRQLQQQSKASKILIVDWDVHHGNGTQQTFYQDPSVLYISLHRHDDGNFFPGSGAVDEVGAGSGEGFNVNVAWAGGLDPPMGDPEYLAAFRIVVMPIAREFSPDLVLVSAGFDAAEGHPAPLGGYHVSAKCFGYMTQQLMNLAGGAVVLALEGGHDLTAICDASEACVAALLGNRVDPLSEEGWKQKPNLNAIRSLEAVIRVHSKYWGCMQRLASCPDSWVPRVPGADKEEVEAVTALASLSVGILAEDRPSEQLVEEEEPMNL
The experiment is described as above. Conditions: HDAC7; 37° C. 30 minutes.

The target in another experiment is HDAC1 (Homo sapiens, UniProt Q13547). The description is as above.
HDAC1, sequence (Q13547 whole entry, species assumed): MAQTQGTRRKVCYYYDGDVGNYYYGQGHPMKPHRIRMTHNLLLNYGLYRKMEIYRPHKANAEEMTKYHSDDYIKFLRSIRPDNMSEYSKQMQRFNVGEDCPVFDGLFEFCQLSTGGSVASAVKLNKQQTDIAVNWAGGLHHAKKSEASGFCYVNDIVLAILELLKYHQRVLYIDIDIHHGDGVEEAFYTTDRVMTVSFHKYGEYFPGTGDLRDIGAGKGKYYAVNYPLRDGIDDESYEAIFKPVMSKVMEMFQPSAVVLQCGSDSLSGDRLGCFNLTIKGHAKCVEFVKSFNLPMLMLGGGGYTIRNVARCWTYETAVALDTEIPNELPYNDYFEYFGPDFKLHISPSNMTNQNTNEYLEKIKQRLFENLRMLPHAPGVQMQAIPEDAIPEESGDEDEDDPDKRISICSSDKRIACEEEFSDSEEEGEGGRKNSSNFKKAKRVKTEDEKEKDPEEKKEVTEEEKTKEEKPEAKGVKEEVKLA
The target in the next experiment is HDAC3 (Homo sapiens, UniProt O15379). The experiment is described as above.
HDAC3, sequence (O15379 whole entry, species assumed): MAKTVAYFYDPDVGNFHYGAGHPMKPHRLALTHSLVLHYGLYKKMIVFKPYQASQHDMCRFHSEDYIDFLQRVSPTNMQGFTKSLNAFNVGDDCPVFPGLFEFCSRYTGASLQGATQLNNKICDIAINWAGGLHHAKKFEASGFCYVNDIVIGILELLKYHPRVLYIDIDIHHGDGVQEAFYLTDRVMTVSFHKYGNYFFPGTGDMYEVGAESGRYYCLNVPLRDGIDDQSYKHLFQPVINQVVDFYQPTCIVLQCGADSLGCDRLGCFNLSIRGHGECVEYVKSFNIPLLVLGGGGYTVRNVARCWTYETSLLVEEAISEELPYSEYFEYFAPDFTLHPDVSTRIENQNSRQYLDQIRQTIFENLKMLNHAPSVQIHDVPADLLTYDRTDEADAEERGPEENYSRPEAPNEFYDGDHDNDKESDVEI
HDAC3, sequence (Q9Y618 395-489 partner limits assumed, species assumed): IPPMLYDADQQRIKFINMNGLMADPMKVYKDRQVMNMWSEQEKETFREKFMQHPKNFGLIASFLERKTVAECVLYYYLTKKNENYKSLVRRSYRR
Experiment [1] deals with KBM5-T315I (human chronic myelogenous leukemia). As to the kind of experiment: MTT cancer cell growth inhibition. Type of experiment: cell-based. Conditions: Homo sapiens, 72 h, MTT, 72 hours incubation, KBM5-T315I cells; read-out: GI50 KBM5-T315I. In outline: (§1)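 Seed 1500 cells/well, incubate overnight. Add compound, 10^−5 to 10^−10 M final, n=3; culture 72 h, 37° C., 5% CO2. Add MTT, 4 h. Discard supernatant, dissolve in DMSO. Read 570 nm; calculate viability and GI50.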

Experiment [2] has as its system A549 (human lung cancer cells). As to the kind of experiment: MTT cancer cell growth inhibition. Type of experiment: cell-based. The settings on record: Homo sapiens, A549, 72 h, MTT, 72 hours incubation; read-out: GI50 A54. In a few lines:
as §1

The subject of experiment [3] is KBM-5 (human chronic myelogenous leukemia). As to the kind of experiment: MTT cancer cell growth inhibition. The format is cell-based. The settings on record: Homo sapiens, KBM5, 72 h, MTT, 72 hours incubation, KBM-5 cells; read-out: GI50 KBM-5. In a few lines: as §1
The subject of experiment [4] is SGC-7901 (human gastric cancer cells). Briefly: MTT cancer cell growth inhibition. Type of experiment: cell-based. The settings on record: Homo sapiens, SGC-7901, 72 h, MTT, 72 hours incubation, SGC-7901 cells; read-out: GI50 SGC-7901. In outline: as §1
Experiment [5] relates to N-87 (human gastric cancer cells). Briefly: MTT cancer cell growth inhibition. Type of experiment: cell-based. The settings on record: Homo sapiens, 72 h, MTT, 72 hours incubation, N-87 cells; read-out: GI50 N-87. In a few lines:
as §1

Experiment [6] deals with HT1080 (human fibrosarcoma cells). Briefly: MTT cancer cell growth inhibition. The settings on record: Homo sapiens, HT-1080, 72 h, MTT, 72 hours incubation; read-out: GI50 HT1. Type of experiment: cell-based. In outline: as §1
Experiment [7] relates to PANC-1 (Pac-1, human pancreatic cancer cells). Briefly: MTT cancer cell growth inhibition. Type of experiment: cell-based. Conditions: Homo sapiens, PANC-1, 72 h, MTT, 72 hours incubation; read-out: GI50 PAN. In a few lines:
as §1

For experiment [8], the system named is MDA-MB-231 (breast cancer cells). Briefly: MTT cancer cell growth inhibition. The format is cell-based. The settings on record: Homo sapiens, MDA-MB-231, 72 h, read-out: GI50 MDA-MB-231, MTT, 72 hours incubation, MDA-MB-231 cells. In outline:
as §1

Experiment [9] has as its system H1975 (non-small cell lung adenocarcinoma). As to the kind of experiment: MTT cancer cell growth inhibition. Conditions: Homo sapiens, NCI-H1975, 72 h, MTT, 72 hours incubation, H1975 cells; read-out: GI50 H1975. Type of experiment: cell-based. In a few lines:
as §1

The subject of experiment [10] is K562 (human leukemia cells). As to the kind of experiment: MTT cancer cell growth inhibition. The format is cell-based. The settings on record: Homo sapiens, K562, 72 h, MTT, 72 hours incubation, K562 cells; read-out: GI50 K562. In a few lines: as §1
Experiment [11] has as its system Hela (human cervical cancer cells). As to the kind of experiment: MTT cancer cell growth inhibition. Conditions: Homo sapiens, HeLa, 72 h, MTT, 72 hours incubation; read-out: GI50 Hela. The format is cell-based. In outline: as §1
Experiment [12] has as its system DU145 (human prostate cancer cells). As to the kind of experiment: MTT cancer cell growth inhibition. Type of experiment: cell-based. The settings on record: Homo sapiens, DU-145, 72 h, MTT, 72 hours incubation; read-out: GI50 Du1. In outline: as §1
The mark [13] stands for this setting: HDAC1, 37° C. 30 minutes, read-out: IC50 HDAC1.
[14] abbreviates: Table 3, column C, read-out: IC50 HDAC1, C (six-membered ring with substituents).
Setting [15] is: read-out: IC50 HDAC3, HDAC3, 37° C. 30 minutes.
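For IC50 HDAC1 in this document: fluorogenic acetyl-lysine substrate (20 µM) deacetylated by HDAC1, then developer releases fluorophore read at 360 nm excitation and 460 nm emission, inhibitor incubated 30 min at 37 °C.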
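For IC50 HDAC1, C (six-membered ring with substituents) in this document: fluorogenic acetyl-lysine substrate (20 µM) deacetylated by HDAC1, then developer releases fluorophore read at 360 nm excitation and 460 nm emission, inhibitor incubated 30 min at 37 °C.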
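For IC50 HDAC7 in this document: fluorogenic deacetylation assay using acetyl-lysine substrate at 20 µM, enzyme and compound incubated 30 min at 37 °C, then developer added, fluorescence read at 360/460 nm.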

Description for HDAC1: The chemical activity of the compound is determined according to the degree of deacetylation inhibition of the HDAC enzyme. This experiment measured the degree of deacetylation related to tumor proliferation and metastasis of HDAC1, HDAC2, HDAC3, HDAC8, HDAC11 five subtypes HDAC enzymes. After the substrate containing an acetylated lysine side chain and HDAC enzyme are labeled with a fluorescent label, the fluorescent substrate is de acetyl. The fluorescent labeled substrate is cleaved by the enzyme, and the fluorescent substance is released, which generates 460 nm emission light under the excitation of 360 nm light.
HDAC substrate was diluted with reaction buffer to 200M (reaction concentration of 20M), the HDAC enzyme was diluted to the appropriate concentration, then added different concentrations of the test compounds and acted at 37° C. 30 minutes, and then added the same volume of 2-times concentration substrate developing solution (developer), incubated at room temperature for 15 minutes.

Take `C/C=C1\NC(=O)c2cc(F)cc(n2)CNC(=O)C[C@@H](/C=C/CCSC(C)=O)OC(=O)[C@H](Cc2ccc(O)cc2)NC1=O` [Example 82]: the values for the 50% inhibitory concentration (IC50) at HDAC2, on HDAC1 (setting [13]) and on HDAC3 were 49 nM, 94 nM and 53 nM, respectively. Further, the “IC50 HDAC7” value against HDAC7 was “no activity”. The GI50 stood at 38 nM in experiment [1]; 40 nM in experiment [2]; 49 nM in experiment [3]; 48 nM in experiment [4]; 26 nM in [5]; 80 nM in [6]. The 50% growth inhibitory concentration (GI50) in experiment [7] came to 80 nM; in [8], 29 nM; in experiment [9], 52 nM; in experiment [10], 36 nM; in experiment [11], 40 nM; in [12] it was 30 nM.
As for `C/C=C1\NC(=O)c2nc(ccc2F)CNC(=O)C[C@@H](/C=C/CCSC(C)=O)OC(=O)[C@H](Cc2cccc3ccccc23)NC1=O` [Compound 78], the IC50 against HDAC2 worked out at 37 nM; on HDAC1 (setting [13]), 63 nM; on HDAC1 (setting [14]) it was 63 nM; at HDAC3 (setting [15]), 38 nM. Further, the “IC50 HDAC7” value at HDAC7 was “no activity”. For the same compound, the GI50 in [1] worked out at 19 nM; in experiment [2] it was 60 nM; in [3] it was 61 nM; in [4], 62 nM; in experiment [5], 61 nM; in experiment [6] it was 70 nM. Moreover, the GI50 in [7] was determined as 70 nM; in experiment [8] it was 29 nM; in experiment [9] it was 63 nM; in [10] it was 46 nM; in [11], 60 nM; in experiment [12], 40 nM.
`C/C=C1\NC(=O)c2ccc(F)c(n2)CNC(=O)C[C@@H](/C=C/CCSC(C)=O)OC(=O)[C@H](CCCCNC(=O)OCC2c3ccccc3-c3ccccc32)NC1=O` [Example 77]: the IC50 against HDAC2 stood at 29 nM; on HDAC1 (setting [13]), 94 nM; against HDAC3, 26 nM. On HDAC7, the “IC50 HDAC7” value is reported as “no activity”. Further, the GI50 in experiment [1] worked out at 37 nM; in [2], 600 nM; in experiment [3], 52 nM; in experiment [4], 601 nM; in experiment [5], 52 nM; in [6], 80 nM. Further, the GI50 in [7] turned out to be 80 nM; in experiment [8], 25 nM; in [9], 35 nM; in [10], 42 nM; in experiment [11], 50 nM; in experiment [12], 40 nM.
For the compound `C/C=C1\NC(=O)c2nc(ccc2F)CNC(=O)C[C@@H](/C=C/CCSC(C)=O)OC(=O)[C@H](Cc2ccc(O)cc2)NC1=O` [Compound 81], the IC50 on HDAC2 came out at 31 nM; at HDAC1 (setting [13]), 37 nM; on HDAC1 (setting [14]), 37 nM; at HDAC3 (setting [15]), 16 nM. The “IC50 HDAC7” value on HDAC7 is reported as “no activity”. In addition, the GI50 in experiment [1] is 34 nM; in experiment [2], 50 nM; in experiment [3], 38 nM; in experiment [4] it was 59 nM; in [5] it was 35 nM; in experiment [6], 50 nM. For the same compound, the concentration for 50% growth inhibition (GI50) in [7] was found to be 50 nM; in experiment [8], 34 nM; in [9], 43 nM; in [10] it was 29 nM; in experiment [11], 30 nM; in experiment [12] it was 20 nM.
